Earlier results as cited in US20240316057A1 (priority 2021, published 2024).

Assays:
[1] = as known to the skilled person

solubility in water | Compound | efficacious plasma concentration range [1] [µM]
– | Cn1c(=O)c2c(ncn2C)n(C)c1=O [Caffeine, 1,3,7-trimethylxanthine] | 5 to 20
very slightly water-soluble | Cn1cnc2c1c(=O)[nH]c(=O)n2C [Theobromine, 3,7-dimethylxanthine] | –
